Data from PubChem BioAssay (NCI).
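Dose response: 5 concentrations. Exposure: 48 h. Format: 96-well plates. Endpoint: linear interpolation; highest concentration if not reached. GI50 is the concentration that inhibits growth by half. Definition used: TGI = concentration required for complete inhibition of growth.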

The molecules below were run on RPMI-8226 leukemia (assay: inhibition of tumour cell growth, NCI panel, 48 h).
`NC(N)=N/N=C/c1c(-c2ccccn2)nc2sc(Cl)cn12` gave a GI50 of 11.5 µM and a TGI of 29 µM.

The molecules below were run on MOLT-4 leukemia (assay: inhibition of tumour cell growth, NCI panel, 48 h).
`Cc1ccc(-c2nc(C(Cl)Cl)n3nc(-c4ccccc4)cc3n2)cc1` showed a GI50 greater than 100 µM and a TGI greater than 100 µM. `COC(=O)/C=C\S/C(=C(/c1ccccc1)n1ccc(C(=O)OC)n1)c1ccccc1` gave a TGI greater than 100 µM. `COc1ccc(/C=N/Nc2nc3ccccc3c(=O)n2-c2ccccc2)c(OCc2ccccc2)c1` showed a TGI greater than 100 µM. Molecule `CNC(=O)c1cc(Oc2ccc(NC(=O)Nc3ccc(Cl)c(OC(F)(F)F)c3)c(F)c2)ccn1` has a GI50 of 1.19 µM and a TGI of 8.64 µM.

These molecules were tested on A498 renal (assay: inhibition of tumour cell growth, NCI panel, 48 h).
`COc1ccc(/C=N/Nc2nc3ccccc3c(=O)n2-c2ccccc2)c(OCc2ccccc2)c1` showed a TGI greater than 100 µM. `CNC(=O)c1cc(Oc2ccc(NC(=O)Nc3ccc(Cl)c(OC(F)(F)F)c3)c(F)c2)ccn1` gave a GI50 of 2.66 µM and a TGI of 11.4 µM.

These molecules were tested on NCI-H226 lung (assay: inhibition of tumour cell growth, NCI panel, 48 h).
`Cc1ccc(-c2nc(C(Cl)Cl)n3nc(-c4ccccc4)cc3n2)cc1` gave a GI50 greater than 100 µM and a TGI greater than 100 µM. With `COC(=O)/C=C\S/C(=C(/c1ccccc1)n1ccc(C(=O)OC)n1)c1ccccc1` the TGI was greater than 100 µM. Work on `COc1ccc(/C=N/Nc2nc3ccccc3c(=O)n2-c2ccccc2)c(OCc2ccccc2)c1` yielded a TGI greater than 100 µM. For `CNC(=O)c1cc(Oc2ccc(NC(=O)Nc3ccc(Cl)c(OC(F)(F)F)c3)c(F)c2)ccn1`, the GI50 was 2.5 µM and the TGI was 21.4 µM.

Each molecule was assayed on 786-0 renal (assay: inhibition of tumour cell growth, NCI panel, 48 h).
In the case of `Cc1ccc(-c2nc(C(Cl)Cl)n3nc(-c4ccccc4)cc3n2)cc1`, the GI50 is reported as 0.676 µM and the TGI is reported as 2.17 µM. `COC(=O)/C=C\S/C(=C(/c1ccccc1)n1ccc(C(=O)OC)n1)c1ccccc1` gave a TGI of 36.6 µM. In the case of `COc1ccc(/C=N/Nc2nc3ccccc3c(=O)n2-c2ccccc2)c(OCc2ccccc2)c1`, the TGI is reported as greater than 100 µM. For `CNC(=O)c1cc(Oc2ccc(NC(=O)Nc3ccc(Cl)c(OC(F)(F)F)c3)c(F)c2)ccn1`, the GI50 was 4.65 µM and the TGI was greater than 33.2 µM. In the case of `NC(N)=N/N=C/c1c(-c2ccccn2)nc2sc(Cl)cn12`, the GI50 is reported as 8.45 µM and the TGI is reported as 16.4 µM.

The molecules below were run on BT-549 breast (assay: inhibition of tumour cell growth, NCI panel, 48 h).
With `Cc1ccc(-c2nc(C(Cl)Cl)n3nc(-c4ccccc4)cc3n2)cc1` the GI50 was greater than 100 µM and the TGI was greater than 100 µM. `COC(=O)/C=C\S/C(=C(/c1ccccc1)n1ccc(C(=O)OC)n1)c1ccccc1` was tested, and the TGI was greater than 100 µM. Molecule `CNC(=O)c1cc(Oc2ccc(NC(=O)Nc3ccc(Cl)c(OC(F)(F)F)c3)c(F)c2)ccn1` has a GI50 of 3.17 µM and a TGI of 14 µM. Molecule `NC(N)=N/N=C/c1c(-c2ccccn2)nc2sc(Cl)cn12` has a GI50 of 8.25 µM and a TGI of 15.2 µM.

The molecules below were run on OVCAR-3 ovarian (assay: inhibition of tumour cell growth, NCI panel, 48 h).
With `Cc1ccc(-c2nc(C(Cl)Cl)n3nc(-c4ccccc4)cc3n2)cc1` the GI50 was 0.222 µM and the TGI was 0.586 µM. `COc1ccc(/C=N/Nc2nc3ccccc3c(=O)n2-c2ccccc2)c(OCc2ccccc2)c1` showed a TGI greater than 100 µM. With `CNC(=O)c1cc(Oc2ccc(NC(=O)Nc3ccc(Cl)c(OC(F)(F)F)c3)c(F)c2)ccn1` the GI50 was 1.78 µM and the TGI was 11 µM. `NC(N)=N/N=C/c1c(-c2ccccn2)nc2sc(Cl)cn12` showed a GI50 of 7.55 µM and a TGI of 14.3 µM.

These molecules were tested on SK-OV-3 ovarian (assay: inhibition of tumour cell growth, NCI panel, 48 h).
In the case of `Cc1ccc(-c2nc(C(Cl)Cl)n3nc(-c4ccccc4)cc3n2)cc1`, the GI50 is reported as 2.56 µM and the TGI is reported as greater than 100 µM. `COC(=O)/C=C\S/C(=C(/c1ccccc1)n1ccc(C(=O)OC)n1)c1ccccc1` gave a TGI of 50.8 µM. With `COc1ccc(/C=N/Nc2nc3ccccc3c(=O)n2-c2ccccc2)c(OCc2ccccc2)c1` the TGI was greater than 100 µM. Molecule `CNC(=O)c1cc(Oc2ccc(NC(=O)Nc3ccc(Cl)c(OC(F)(F)F)c3)c(F)c2)ccn1` has a GI50 of 4.32 µM and a TGI greater than 33.2 µM. Molecule `NC(N)=N/N=C/c1c(-c2ccccn2)nc2sc(Cl)cn12` has a GI50 of 9.1 µM and a TGI of 17.9 µM.

What follows are molecules tested on SK-MEL-5 melanoma (assay: inhibition of tumour cell growth, NCI panel, 48 h).
In the case of `Cc1ccc(-c2nc(C(Cl)Cl)n3nc(-c4ccccc4)cc3n2)cc1`, the GI50 is reported as greater than 100 µM and the TGI is reported as greater than 100 µM. Molecule `COC(=O)/C=C\S/C(=C(/c1ccccc1)n1ccc(C(=O)OC)n1)c1ccccc1` has a TGI greater than 100 µM. With `COc1ccc(/C=N/Nc2nc3ccccc3c(=O)n2-c2ccccc2)c(OCc2ccccc2)c1` the TGI was greater than 100 µM. Molecule `CNC(=O)c1cc(Oc2ccc(NC(=O)Nc3ccc(Cl)c(OC(F)(F)F)c3)c(F)c2)ccn1` has a GI50 of 1.63 µM and a TGI of 5.46 µM. Work on `NC(N)=N/N=C/c1c(-c2ccccn2)nc2sc(Cl)cn12` yielded a GI50 of 8.47 µM and a TGI of 15.4 µM.

What follows are molecules tested on DU-145 prostate (assay: inhibition of tumour cell growth, NCI panel, 48 h).
`COc1ccc(/C=N/Nc2nc3ccccc3c(=O)n2-c2ccccc2)c(OCc2ccccc2)c1` was tested, and the TGI was greater than 100 µM. `CNC(=O)c1cc(Oc2ccc(NC(=O)Nc3ccc(Cl)c(OC(F)(F)F)c3)c(F)c2)ccn1` showed a GI50 of 4.24 µM and a TGI greater than 33.2 µM. `NC(N)=N/N=C/c1c(-c2ccccn2)nc2sc(Cl)cn12` was tested, and the GI50 was 7.68 µM and the TGI was 14.4 µM.

These molecules were tested on HCT-15 colon (assay: inhibition of tumour cell growth, NCI panel, 48 h).
For `Cc1ccc(-c2nc(C(Cl)Cl)n3nc(-c4ccccc4)cc3n2)cc1`, the GI50 was 0.313 µM and the TGI was 1.12 µM. `COC(=O)/C=C\S/C(=C(/c1ccccc1)n1ccc(C(=O)OC)n1)c1ccccc1` showed a TGI greater than 100 µM. Work on `COc1ccc(/C=N/Nc2nc3ccccc3c(=O)n2-c2ccccc2)c(OCc2ccccc2)c1` yielded a TGI greater than 100 µM. With `CNC(=O)c1cc(Oc2ccc(NC(=O)Nc3ccc(Cl)c(OC(F)(F)F)c3)c(F)c2)ccn1` the GI50 was 1.58 µM and the TGI was 18 µM. `NC(N)=N/N=C/c1c(-c2ccccn2)nc2sc(Cl)cn12` showed a GI50 of 8.15 µM and a TGI of 14.9 µM.

Each molecule was assayed on KM12 colon (assay: inhibition of tumour cell growth, NCI panel, 48 h).
For `COC(=O)/C=C\S/C(=C(/c1ccccc1)n1ccc(C(=O)OC)n1)c1ccccc1`, the TGI was greater than 100 µM. With `COc1ccc(/C=N/Nc2nc3ccccc3c(=O)n2-c2ccccc2)c(OCc2ccccc2)c1` the TGI was greater than 100 µM. Molecule `CNC(=O)c1cc(Oc2ccc(NC(=O)Nc3ccc(Cl)c(OC(F)(F)F)c3)c(F)c2)ccn1` has a GI50 of 1.17 µM and a TGI of 9.09 µM. Work on `NC(N)=N/N=C/c1c(-c2ccccn2)nc2sc(Cl)cn12` yielded a GI50 of 8.05 µM and a TGI of 15.1 µM.

The molecules below were run on HCT-116 colon (assay: inhibition of tumour cell growth, NCI panel, 48 h).
For `Cc1ccc(-c2nc(C(Cl)Cl)n3nc(-c4ccccc4)cc3n2)cc1`, the GI50 was 0.258 µM and the TGI was 0.712 µM. Molecule `COC(=O)/C=C\S/C(=C(/c1ccccc1)n1ccc(C(=O)OC)n1)c1ccccc1` has a TGI greater than 100 µM. `COc1ccc(/C=N/Nc2nc3ccccc3c(=O)n2-c2ccccc2)c(OCc2ccccc2)c1` showed a TGI greater than 100 µM. `CNC(=O)c1cc(Oc2ccc(NC(=O)Nc3ccc(Cl)c(OC(F)(F)F)c3)c(F)c2)ccn1` was tested, and the GI50 was 1.15 µM and the TGI was 8.08 µM. For `NC(N)=N/N=C/c1c(-c2ccccn2)nc2sc(Cl)cn12`, the GI50 was 8.36 µM and the TGI was 17.3 µM.

Each molecule was assayed on HCC-2998 colon (assay: inhibition of tumour cell growth, NCI panel, 48 h).
In the case of `COC(=O)/C=C\S/C(=C(/c1ccccc1)n1ccc(C(=O)OC)n1)c1ccccc1`, the TGI is reported as greater than 100 µM. With `COc1ccc(/C=N/Nc2nc3ccccc3c(=O)n2-c2ccccc2)c(OCc2ccccc2)c1` the TGI was greater than 100 µM. `CNC(=O)c1cc(Oc2ccc(NC(=O)Nc3ccc(Cl)c(OC(F)(F)F)c3)c(F)c2)ccn1` was tested, and the GI50 was 1.62 µM and the TGI was 7.08 µM.

Each molecule was assayed on SF-539 CNS (assay: inhibition of tumour cell growth, NCI panel, 48 h).
`COC(=O)/C=C\S/C(=C(/c1ccccc1)n1ccc(C(=O)OC)n1)c1ccccc1` showed a TGI greater than 100 µM. In the case of `COc1ccc(/C=N/Nc2nc3ccccc3c(=O)n2-c2ccccc2)c(OCc2ccccc2)c1`, the TGI is reported as greater than 100 µM. With `CNC(=O)c1cc(Oc2ccc(NC(=O)Nc3ccc(Cl)c(OC(F)(F)F)c3)c(F)c2)ccn1` the GI50 was 3.38 µM and the TGI was 8.13 µM. In the case of `NC(N)=N/N=C/c1c(-c2ccccn2)nc2sc(Cl)cn12`, the GI50 is reported as 1.54 µM and the TGI is reported as 3.49 µM.

What follows are molecules tested on SF-295 CNS (assay: inhibition of tumour cell growth, NCI panel, 48 h).
Molecule `COC(=O)/C=C\S/C(=C(/c1ccccc1)n1ccc(C(=O)OC)n1)c1ccccc1` has a TGI greater than 100 µM. `COc1ccc(/C=N/Nc2nc3ccccc3c(=O)n2-c2ccccc2)c(OCc2ccccc2)c1` was tested, and the TGI was greater than 100 µM. Work on `CNC(=O)c1cc(Oc2ccc(NC(=O)Nc3ccc(Cl)c(OC(F)(F)F)c3)c(F)c2)ccn1` yielded a GI50 of 1.1 µM and a TGI of 5.25 µM. `NC(N)=N/N=C/c1c(-c2ccccn2)nc2sc(Cl)cn12` gave a GI50 of 6.93 µM and a TGI of 13.4 µM.
